The source of these data is patent US20080076760A1, “2,3,4,5-TETRAHYDRO-1H-1,5-BENZODIAZEPINE DERIVATIVE AND MEDICINAL COMPOSITION” (priority 2004, published 2008).

By Ki is commonly meant the dissociation constant of the complex between target and ligand, obtained from inhibition or displacement.

Assay [1] concerns the target human vasopressin V1a receptor (Homo sapiens, UniProt P37288). Put plainly: Receptor binding study, [3H]AVP displacement on CHO cell membranes, human V1a. The procedure: (§1) (ii) Receptor Binding Study
(§2) Assay was performed using 50 mM of Tris-HCl (pH=7.4) (total amount: 250 μL) (buffer composition: containing […] of MgCl2 and 0.1% BSA), and incubation was performed at room temperature (25° C.) for one hour. After incubation, suck filtration was immediately performed and reaction was completed when the membrane sample was collected on a glass fiber filter fitted with the microplate. After the filter was washed with an ice-cold Tris-HCl buffer (50 mM Tris-HCl, 10 mM MgCl2, pH 7.4), radioactivity measurement was performed. Nonspecific binding was determined using nonradioactive-labeled AVP (1 μM).

Assay [2] deals with human vasopressin V2 receptor (Homo sapiens, UniProt P30518). As to the kind of experiment: Receptor binding study, [3H]AVP displacement on CHO cell membranes, human V2. Here is the method: Preparation of Chinese hamster ovary (Cho) cell which expresses human vasopressin receptor subtype and production of membrane sample of the cell was conducted according to the method of Tahara et al. (Br. J. Pharmacol., 125, 1463-1470, 1998).
as §1
as §2, with “In saturation binding experiment, the membrane sample and [^3H]AVP of several concentrations (0.125 nM to 4.0 nM) were mixed and incubated in microplate wells. In displacement experiment, [^3H]AVP of constant concentrations (0.5 nM to 1.0 nM) and the membrane sample were mixed with Compound A of several concentrations, and incubation was performed. Assay” for “Assay”

The mark [3] stands for this setting: [3H]AVP displacement, CHO cell membrane, 25° C., one hour, read-out: Human V1a Ki.
[4] abbreviates: [3H]AVP displacement, CHO cell membrane, 25° C., one hour, read-out: Human V2 Ki.

Where two headings read alike, the source gives them in different places.

human vasopressin V1a receptor, sequence (P37288 whole entry): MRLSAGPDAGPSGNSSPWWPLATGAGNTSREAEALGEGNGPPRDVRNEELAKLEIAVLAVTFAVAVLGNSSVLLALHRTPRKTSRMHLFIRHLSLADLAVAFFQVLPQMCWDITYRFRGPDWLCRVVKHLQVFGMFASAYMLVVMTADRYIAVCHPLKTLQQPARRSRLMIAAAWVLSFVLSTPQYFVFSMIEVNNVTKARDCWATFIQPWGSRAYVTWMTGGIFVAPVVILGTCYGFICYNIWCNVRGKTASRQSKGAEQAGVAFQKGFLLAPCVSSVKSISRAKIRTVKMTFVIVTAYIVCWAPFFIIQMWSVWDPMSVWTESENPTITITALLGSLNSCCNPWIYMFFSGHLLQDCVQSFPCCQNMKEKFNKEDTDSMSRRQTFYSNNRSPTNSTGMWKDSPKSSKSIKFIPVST
human vasopressin V2 receptor, sequence (P30518 whole entry): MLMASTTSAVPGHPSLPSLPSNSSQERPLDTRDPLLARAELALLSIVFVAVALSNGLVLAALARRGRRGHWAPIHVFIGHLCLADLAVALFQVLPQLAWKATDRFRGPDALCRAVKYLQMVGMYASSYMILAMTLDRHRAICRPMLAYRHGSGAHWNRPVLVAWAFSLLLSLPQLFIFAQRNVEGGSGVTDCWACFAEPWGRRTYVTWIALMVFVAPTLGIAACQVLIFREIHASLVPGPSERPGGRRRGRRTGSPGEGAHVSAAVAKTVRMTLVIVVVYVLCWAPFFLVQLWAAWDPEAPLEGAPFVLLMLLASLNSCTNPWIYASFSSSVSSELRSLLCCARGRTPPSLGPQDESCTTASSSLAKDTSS

With `CCN1CCC(OC(=O)c2cc(C(=O)N3CC[C@H](C)Nc4ccccc43)ccc2-c2ccc3[nH]ccc3c2)C1` (stereo partly drawn) [Example 145, 1-ethyl-3-pyrrolidinyl 2-(1H-indol-5-yl)-5-[[(4S)-4-methyl-2,3,4,5-tetrahydro-1H-1,5-benzodiazepin-1-yl]carbonyl]benzoate], the Ki was determined as 0.12 nM in assay [1] (setting [3]) and 20 nM in assay [2] (setting [4]).

On to `C[C@H]1CCN(C(=O)c2ccc(-c3ccc4[nH]ccc4c3)c(N3CCN(C)CC3)c2)c2ccccc2N1` [Example 149, (4S)-1-[4-(1H-indol-5-yl)-3-(4-methyl-1-piperazinyl)benzoyl]-4-methyl-2,3,4,5-tetrahydro-1H-1,5-benzodiazepine], for which the Ki is 0.29 nM in assay [1] (setting [3]) and 1.9 nM in assay [2] (setting [4]). For `CC(=O)Nc1cc(C(=O)N2CCC(C)Nc3ccccc32)ccc1-c1ccc2[nH]ccc2c1` (stereo not drawn) [Example 3, N-[2-(1H-indol-5-yl)-5-[(4-methyl-2,3,4,5-tetrahydro-1H-1,5-benzodiazepin-1-yl)carbonyl]phenyl]acetamide] the same measures were 0.18 nM and 22 nM. As for `CCCN1CCN(CCCOc2cc(C(=O)N3CC[C@@H](C)Nc4ccccc43)ccc2-c2ccc3[nH]ccc3c2)CC1` [Example 128, (4R)-1-[4-(1H-indol-5-yl)-3-[3-(4-propyl-1-piperazinyl)propoxy]benzoyl]-4-methyl-2,3,4,5-tetrahydro-1H-1,5-benzodiazepine], the Ki in assay [1] (setting [3]) worked out at 0.2 nM; in assay [2] (setting [4]) it was 39 nM. As to `CCCN(C)CCCOc1cc(C(=O)N2CC[C@@H](C)Nc3ccccc32)ccc1-c1ccc2[nH]ccc2c1` [Example 127, N-[3-[2-(1H-indol-5-yl)-5-[[(4R)-4-methyl-2,3,4,5-tetrahydro-1H-1,5-benzodiazepin-1-yl)carbonyl]phenoxy]propyl]-N-methyl-N-propylamine], the Ki was found to be 0.21 nM in assay [1] (setting [3]) and 77 nM in assay [2] (setting [4]). The like results for `CCC1CCN(C(=O)c2ccc(-c3ccc4[nH]ccc4c3)c(NC(C)=O)c2)c2ccccc2N1` (stereo not drawn) [Example 8, N-[5-[(4-ethyl-2,3,4,5-tetrahydro-1H-1,5-benzodiazepin-1-yl)carbonyl]-2-(1H-indol-5-yl)-phenyl]acetamide] were, in that order, 0.16 nM and 15 nM. For `COc1cc(C(=O)N2CC[C@H](C)Nc3ccccc32)ccc1-c1ccc2[nH]ccc2c1` [Example 47, (4S)-1-[4-(1H-indol-5-yl)-3-methoxybenzoyl]-4-methyl-2,3,4,5-tetrahydro-1H-1,5-benzodiazepine] the same measures were 0.39 nM and 1.2 nM. For the molecule `COc1ccc(S(=O)(=O)N2c3ccc(Cl)cc3[C@](O)(c3ccccc3Cl)[C@@H]2C(=O)N2CCC[C@H]2C(N)=O)cc1OC` [SR49059, reference compound], the Ki in assay [2] (setting [4]) was determined as 143 nM. With `C[C@H]1CCN(C(=O)c2ccc(-c3ccc4[nH]ccc4c3)c(OCCCN3C(=O)CSC3=O)c2)c2ccccc2N1` [Example 100, 3-[3-[2-(1H-indol-5-yl)-5-[[(4S)-4-methyl-2,3,4,5-tetrahydro-1H-1,5-benzodiazepin-1-yl]carbonyl]phenoxy]propyl]-1,3-thiazolidine-2,4-dione], the Ki turned out to be 0.46 nM in assay [1] (setting [3]) and 3.2 nM in assay [2] (setting [4]). The like results for `C[C@H]1CCN(C(=O)c2ccc(-c3ccc4[nH]ccc4c3)c(OCCCN3CCCCC3)c2)c2ccccc2N1` [Example 71, (4S)-1-[4-(1H-indol-5-yl)-3-[3-(1-piperidinyl)propoxy]benzoyl]-4-methyl-2,3,4,5-tetrahydro-1H-1,5-benzodiazepine] were, in that order, 0.16 nM and 11 nM. For `C[C@H]1CCN(C(=O)c2ccc(-c3ccc4[nH]ccc4c3)c(OCCCN3CCCN(C)CC3)c2)c2ccccc2N1` [Example 109, (4S)-1-[4-(1H-indol-5-yl)-3-[3-(4-methyl-1,4-diazepane-1-yl)propoxy]benzoyl]-4-methyl-2,3,4,5-tetrahydro-1H-1,5-benzodiazepine] the same measures were 0.13 nM and 7.1 nM. For `C[C@H]1CCN(C(=O)c2ccc(-c3ccc4[nH]ccc4c3)c(OCCCN(C)C)c2)c2ccccc2N1` [Example 78, N-[3-[2-(1H-indol-5-yl)-5-[[(4S)-4-methyl-2,3,4,5-tetrahydro-1H-1,5-benzodiazepin-1-yl]carbonyl]phenoxy]propyl]-N,N-dimethylamine] the same measures were 0.11 nM and 12 nM. Take `CNc1ccc(-c2ccc(C(=O)N3CC[C@H](C)Nc4ccccc43)cc2OCCN2CCOCC2)cc1` [Example 74, N-methyl-4′-[[(4S)-4-methyl-2,3,4,5-tetrahydro-1H-1,5-benzodiazepin-1-yl]carbonyl]-2′-[2-(4-morpholinyl)ethoxy][1,1′-biphenyl]-4-amine]: the values for the Ki in assay [1] (setting [3]) and in assay [2] (setting [4]) were 0.24 nM and 6.1 nM, respectively. The like results for `CC1CCN(C(=O)c2ccc(-c3ccc4[nH]ccc4c3)c(OCCCN(C)C)c2)c2ccccc2N1` (stereo not drawn) [Example 42, 3-[2-(1H-indol-5-yl)-5-[(4-methyl-2,3,4,5-tetrahydro-1H-1,5-benzodiazepin-1-yl)carbonyl]phenoxy]-N,N-dimethyl-1-propaneamine] were, in that order, 0.19 nM and 34 nM. Regarding `CCCCN(C)CCCCOc1cc(C(=O)N2CC[C@H](C)Nc3ccccc32)ccc1-c1ccc2[nH]ccc2c1` [Example 173, N-butyl-4-[2-(1H-indol-5-yl)-5-[[(4S)-4-methyl-2,3,4,5-tetrahydro-1H-1,5-benzodiazepin-1-yl]carbonyl]phenoxy]-N-methyl-1-butaneamine], the Ki in assay [1] (setting [3]) was 0.21 nM; in assay [2] (setting [4]), 10 nM. Take `CCCN(C)CCCCOc1cc(C(=O)N2CC[C@H](C)Nc3ccccc32)ccc1-c1ccc2[nH]ccc2c1` [Example 117, N-[4-[2-(1H-indol-5-yl)-5-[[(4S)-4-methyl-2,3,4,5-tetrahydro-1H-1,5-benzodiazepin-1-yl]carbonyl]phenoxy]butyl]-N-methyl-N-propylamine]: the Ki in assay [1] was 0.21 nM; in assay [2] it was 12 nM. On to `CCCN(C)CCCOc1cc(C(=O)N2CC[C@H](C)Nc3ccccc32)ccc1-c1ccc(N)cc1` [Example 164, 2′-[3-[methyl(propyl)amino]propoxy]-4′-[[(4S)-4-methyl-2,3,4,5-tetrahydro-1H-1,5-benzodiazepin-1-yl]carbonyl][1,1′-biphenyl]-4-amine], for which the Ki worked out at 0.15 nM in assay [1] (setting [3]) and 477 nM in assay [2] (setting [4]). The like results for `CCCN(CCC)CCCOc1cc(C(=O)N2CC[C@H](C)Nc3ccccc32)ccc1-c1ccc2[nH]ccc2c1` [Example 79, N-[3-[2-(1H-indol-5-yl)-5-[[(4S)-4-methyl-2,3,4,5-tetrahydro-1H-1,5-benzodiazepin-1-yl]carbonyl]phenoxy]propyl]-N,N-dipropylamine] were, in that order, 0.13 nM and 16 nM.

Regarding `COc1cc(C(=O)N2CCC(C)(C)Nc3ccccc32)ccc1-c1ccc2[nH]ccc2c1` [Example 2, 1-[4-(1H-indol-5-yl)-3-methoxybenzoyl]-4,4-dimethyl-2,3,4,5-tetrahydro-1H-1,5-benzodiazepine], the Ki was determined as 0.31 nM in assay [1] (setting [3]) and 4.4 nM in assay [2] (setting [4]). The like results for `C[C@H]1CCN(C(=O)c2ccc(-c3ccc4[nH]ccc4c3)c(CN3CCOCC3)c2)c2ccccc2N1` [Example 94, (4S)-1-[4-(1H-indol-5-yl)-3-(4-morpholinylmethyl)benzoyl]-4-methyl-2,3,4,5-tetrahydro-1H-1,5-benzodiazepine] were, in that order, 0.21 nM and 0.73 nM.
